Experimental data reported in article PMC2579691, “Safety and pharmacokinetics of motesanib in combination with gemcitabine for the treatment of patients with solid tumours” (British Journal of Cancer, 2008).
Values belong to the compound of their own block, whether it stands above or below them.

Tests used:
[1] = system: CYP3A4; design: method as in Shipley et al, 1992; Mini et al, 2006; conditions: ref Shipley et al, 1992; Mini et al, 2006; cited from earlier work
[2] = plasma pharmacokinetics of gemcitabine in patients (phase 1b); conditions: for Tmax: h (range)
[3] = system: Kit; design: method as in Polverino et al, 2006; conditions: ref Polverino et al, 2006; cited from earlier work
[4] = design: method as in Rosen et al, 2007; conditions: motesanib monotherapy, first-in-human study; ref Rosen et al, 2007; cited from earlier work
[5] = clinical; conditions: human, in vivo
[6] = system: VEGFR3; design: method as in Polverino et al, 2006; conditions: ref Polverino et al, 2006; cited from earlier work
[7] = system: human umbilical vein endothelial cell (HUVEC) proliferation; conditions: in vitro, cited from earlier work
[8] = human, in vivo
[9] = system: advanced solid tumours; assay: best tumour response per modified RECIST; format: in vivo, human; conditions: for Confirmed complete response, n (%) / Confirmed objective response, % (95% CI) / Confirmed partial response, n (%) / Progressive disease, n (%) / Stable disease, n (%): with gemcitabine 1000 mg m^−2
Description: Computed tomography (CT) or magnetic resonance imaging (MRI) for tumour assessments were performed at baseline and at 12-week intervals, or as clinically indicated. In patients with baseline measurable disease tumour response per modified RECIST ([Therasse et al, 2000]) was assessed by the investigator. Complete and partial responses were confirmed using CT or MRI scans no less than 28 days after the initial response.

[10] = system: VEGFR1; design: method as in Polverino et al, 2006; conditions: ref Polverino et al, 2006; cited from earlier work
[11] = human, in vivo; remark: listed apart in the source
[12] = dose-limiting toxicities and adverse events in patients (phase 1b)
[13] = system: PDGFR; design: method as in Polverino et al, 2006; conditions: ref Polverino et al, 2006; cited from earlier work

- effect of motesanib coadministration on pharmacokinetics ([2]; combination therapy): not markedly affected
- AUC(0-t) ([2]; human, plasma, intravenous, 1000 mg m^−2, AUC0–2, week 1, range across motesanib dose groups): 4720 to 6270 ng·h/mL
- AUC(0-t) ([2]; human, plasma, intravenous, AUC0–2, week 2, range across motesanib dose groups): 6560 to 7920 ng·h/mL
- Cmax ([2]; human, plasma, iv, 1000 mg m^−2): 9720 ng/mL
- AUC(0-t) ([2]; human, plasma, iv, 1000 mg m^−2, AUC0–2, μg h ml^−1 (s.d.), gemcitabine 1000 mg m^−2 i.v. alone (week 1, day 1), motesanib 50 mg QD cohort): 5210 ng·h/mL
- AUC(0-t) ([2]; human, plasma, iv, 1000 mg m^−2, AUC0–2, μg h ml^−1 (s.d.), gemcitabine 1000 mg m^−2 i.v. alone (week 1, day 1), motesanib 75 mg BID cohort): 6270 ng·h/mL
- AUC(0-t) ([2]; human, plasma, iv, 1000 mg m^−2, AUC0–2, μg h ml^−1 (s.d.), gemcitabine 1000 mg m^−2 i.v. alone (week 1, day 1), motesanib 125 mg QD cohort): 4720 ng·h/mL
- concentration at 2 h ([2]; human, plasma, iv, 1000 mg m^−2, C2, ng ml^−1 (s.d.), gemcitabine 1000 mg m^−2 i.v. alone (week 1, day 1), motesanib 50 mg QD cohort): 104 ng/mL
- concentration at 2 h ([2]; human, plasma, iv, 1000 mg m^−2, C2, ng ml^−1 (s.d.), gemcitabine 1000 mg m^−2 i.v. alone (week 1, day 1), motesanib 75 mg BID cohort): 101 ng/mL
- concentration at 2 h ([2]; human, plasma, iv, 1000 mg m^−2, C2, ng ml^−1 (s.d.), gemcitabine 1000 mg m^−2 i.v. alone (week 1, day 1), motesanib 125 mg QD cohort): 88 ng/mL
- Tmax ([2]; human, plasma, iv, 1000 mg m^−2, tmax, gemcitabine 1000 mg m^−2 i.v. alone (week 1, day 1), motesanib 50 mg QD cohort): 0.5 h
- Tmax ([2]; human, plasma, iv, 1000 mg m^−2, tmax, gemcitabine 1000 mg m^−2 i.v. alone (week 1, day 1), motesanib 75 mg BID cohort): 0.5 h
- Tmax ([2]; human, plasma, iv, 1000 mg m^−2, tmax, gemcitabine 1000 mg m^−2 i.v. alone (week 1, day 1), motesanib 125 mg QD cohort): 0.38 h
- AUC(0-t) ([2]; human, plasma, iv, AUC0–2, μg h ml^−1 (s.d.), gemcitabine 1000 mg m^−2 i.v. in combination with motesanib 50 mg QD (week 2, day 1)): 7920 ng·h/mL
- AUC(0-t) ([2]; human, plasma, iv, AUC0–2, μg h ml^−1 (s.d.), gemcitabine 1000 mg m^−2 i.v. in combination with motesanib 75 mg BID (week 2, day 1)): 7090 ng·h/mL
- AUC(0-t) ([2]; human, plasma, iv, AUC0–2, μg h ml^−1 (s.d.), gemcitabine 1000 mg m^−2 i.v. in combination with motesanib 125 mg QD (week 2, day 1)): 6560 ng·h/mL
- concentration at 2 h ([2]; human, plasma, iv, C2, ng ml^−1 (s.d.), gemcitabine 1000 mg m^−2 i.v. in combination with motesanib 50 mg QD (week 2, day 1)): 183 ng/mL
- concentration at 2 h ([2]; human, plasma, iv, C2, ng ml^−1 (s.d.), gemcitabine 1000 mg m^−2 i.v. in combination with motesanib 75 mg BID (week 2, day 1)): 234 ng/mL
- concentration at 2 h ([2]; human, plasma, iv, C2, ng ml^−1 (s.d.), gemcitabine 1000 mg m^−2 i.v. in combination with motesanib 125 mg QD (week 2, day 1)): 133 ng/mL
- Tmax ([2]; human, plasma, iv, tmax, gemcitabine 1000 mg m^−2 i.v. in combination with motesanib 50 mg QD (week 2, day 1)): 0.5 h
- Tmax ([2]; human, plasma, iv, tmax, gemcitabine 1000 mg m^−2 i.v. in combination with motesanib 75 mg BID (week 2, day 1)): 0.5 h
- Tmax ([2]; human, plasma, iv, tmax, gemcitabine 1000 mg m^−2 i.v. in combination with motesanib 125 mg QD (week 2, day 1)): 0.25 h
- increase of mean Cmax and AUC in week 2 compared with week 1 ([2]; same patients, all motesanib dose groups): < 2 fold
Compound: Nc1ccn([C@@H]2O[C@H](CO)[C@@H](O)C2(F)F)c(=O)n1 [gemcitabine]
- metabolism by CYP3A4 [1]: not metabolised by CYP3A4

Compound: CC1(C)CNc2cc(NC(=O)c3cccnc3NCc3ccncc3)ccc21 [motesanib]
- Cmax ([5]; 125 mg): 421 ng/mL
- durable stable disease ⩾24 weeks ([9]; all patients, with gemcitabine): No patients
- cases of cholecystitis [11]: No cases of cholecystitis occurred
- deaths during the study ([12]; all patients, all deaths unrelated to motesanib treatment): Three patients died
